Results taken from US6399618B1, “Compositions and methods for modulating sexual activity” (priority 1997, dated 2002).
Counter-ions that a name gives are not always drawn.

Assays:
male rats [1] = assay: Rat procopulatory actions (copulatory behavior with receptive female); assay type: in vivo, Long-Evans rats
Method: Male Long-Evans rats (300-600 g; n=15 per group) were injected with saline or XVIb (1.5-30.5 mg/kg; ip) 5 minutes prior to being paired with a female rat sexually receptive by administration of estradiol benzoate (25 μg; 48 hours prior to testing) and progesterone (1 mg/kg; 4 hours prior to testing). Mount latency, intromission latency, ejaculation latency, mounts, intromissions, ejaculations and post ejaculatory interval were recorded over a 30 minutes observation period.
In Table 3, the effect of compound XVIb on copulatory behavior in male rats is shown. Data are expressed as mean (sem for 15 test animals). Latency is the time in seconds to appearance of that behavior. Ejaculations are the number of such events during 30 minutes of observation. Intromissions are the number of such events before ejaculation. Post ejaculatory interval is the time in seconds from ejaculation on intromission to the first mount of the next copulatory sequence. P values derived from two-tailed t-test for significance between mean values (α<0.05).

male rats [2] = assay: Rat sexual behavior, proerectile actions after oral administration; assay type: in vivo, SD rats
Method: Male SD rats (250-300 g) were administered increasing doses of XVIb (30-100 mg/kg in distilled water, per os) or distilled water only via a feeding tube, and observed 5 minutes later for the number of erections (as characterized by penile grooming) over a 60 minute observation period. Six rats at a time, housed singly, were observed by two observers. Treatments were administered in a standard randomized and double blinded manner.

male rats [3] = assay: Antagonism of XVIb-induced erections by comparative compounds in rats; assay type: in vivo, SD rats; conditions: XVIb 16 mg/kg ip; n=6
Method: Male SD rats (300-500 g; n=6 per group) were injected with (±)-Pindolol, scopolamine, haloperidol, or ketanserin, 30 minutes prior to injection of a single dose of XVIb (16 mg/kg, ip) or saline.

[4] = 15 mg/kg ip, n=15, 30 minutes observation

In the case of `CN1CCN(C(=O)Cc2ccc3ccccc3c2)CC1` [Compound XVIb, 1-Methyl-4(2-naphthaleneacetyl)piperazine monohydrochloride], the “number of intromissions (in words)” value (male rats [1]; 7.5 mg/kg and 30.5 mg/kg only, data is not shown) is reported as “reducing the number of intromissions”, the Post ejaculatory interval (male rats [1]; 15 mg/kg ip, n=15) is reported as 426.6 ± 28.5 s and the Ejaculation latency (male rats [1]; [4]) is reported as 330.9 ± 31.5 s. It also gave an Intromission latency (male rats [1]; [4]) of 405.1 ± 88.0 s, a Mount latency (male rats [1]; [4]) of 204.5 ± 31.9 s and an Intromissions (male rats [1]; 15 mg/kg ip, n=15, before ejaculation) of 6.9 ± 0.7. For the same compound, the ejaculations (male rats [1]; 15 mg/kg ip, n=15, during 30 minutes of observation) was 4.7 ± 0.2, the “Post ejaculatory interval (in words)” value (male rats [1]; any of doses tested (1.5-30.5 mg/kg ip)) was “not affected” and the “copulatory behaviors (in words)” value (male rats [1]; doses above and below 15 mg/kg) was “without significant effects”. For the same compound, the Responders (male rats [2]; 30 mg/kg p.o.) was 100%, the “maximum number of erections/rat” value (male rats [2]; 30 mg/kg p.o.) was 3 h⁻¹ and the Responders (male rats [2]; 100 mg/kg p.o.) was 100%. For the same compound, the “maximum number of erections/rat” value (male rats [2]; 100 mg/kg p.o.) was 5 h⁻¹, the “erections with XVIb without antagonist (pindolol comparison)” value (male rats [3]) was 7.8±1.4 erections/60 minutes and the “erections with XVIb without antagonist (scopolamine comparison)” value (male rats [3]) was 1.7 erections/60 minutes.
